Measured values published in PubChem BioAssay (NCI).
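Protocol summary: plate cells (96-well), add compound at 5 concentrations, incubate 48 h, interpolate endpoints linearly. GI50 = concentration required for 50% inhibition of growth. The concentration for full growth arrest is given as TGI.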

Assays:
Test in all cases: DTP human tumour cell line panel, 48 h; in the data active = GI50 below about 0.43 µM; inactive = the rest
[1] = system: MDA-MB-231 breast
[2] = system: A498 renal
[3] = system: OVCAR-3 ovarian
[4] = system: BT-549 breast
[5] = system: MDA-MB-468 breast
[6] = system: NCI-H460 lung
[7] = system: OVCAR-8 ovarian
[8] = system: HT29 colon
[9] = system: UO-31 renal
[10] = system: SF-268 CNS
[11] = system: UACC-257 melanoma
[12] = system: SF-539 CNS
[13] = system: OVCAR-5 ovarian
[14] = system: SR leukemia
[15] = system: COLO 205 colon
[16] = system: IGROV1 ovarian
[17] = system: HOP-62 NSCLC
[18] = system: NCI-H522 lung
[19] = system: RXF 393 renal
[20] = system: NCI-H226 lung
[21] = system: PC-3 prostate
[22] = system: CAKI-1 renal
[23] = system: CCRF-CEM leukemia
[24] = system: HCT-15 colon
[25] = system: SF-295 CNS
[26] = system: SK-MEL-2 melanoma
[27] = system: A549 NSCLC
[28] = system: K-562 leukemia
[29] = system: HS 578T breast

Cn1cc(-c2cc3nc(-c4cn(C)c5ncccc45)cc(N)n3n2)c2cc(F)ccc21
28.4 µM: TGI [8]
30.6 µM: TGI [18]
48 µM: TGI [4]
9.35 µM: TGI [19]
53.1 µM: TGI [16]
40.5 µM: TGI [7]
23.3 µM: TGI [26]
26.8 µM: TGI [1]
inactive: GI50 [1] 9.62 µM | GI50 [2] 50 µM | GI50 [3] 14.1 µM | GI50 [4] 13.3 µM | GI50 [5] 3.81 µM | GI50 [6] 5.43 µM | GI50 [7] 4.6 µM | GI50 [8] 4.14 µM | GI50 [9] 31.9 µM | GI50 [10] 15.6 µM | GI50 [11] 65.6 µM | GI50 [12] 10.6 µM | GI50 [13] 25.2 µM | GI50 [14] 2.48 µM | GI50 [15] 6.78 µM | GI50 [16] 4.45 µM | GI50 [17] 4.05 µM | GI50 [18] 10.8 µM | GI50 [19] 2.61 µM | GI50 [20] 4.04 µM | GI50 [21] 11 µM | GI50 [22] 13 µM | GI50 [23] 7.83 µM | GI50 [24] > 100 µM | GI50 [25] 3.22 µM | GI50 [26] 10.4 µM | GI50 [27] 7.71 µM | GI50 [28] 10.5 µM | GI50 [29] 11.3 µM
57.8 µM: TGI [3]
20.2 µM: TGI [20]
16.6 µM: TGI [17]
22.1 µM: TGI [5]
28.8 µM: TGI [12]
> 100 µM: TGI [2] | TGI [6] | TGI [9] | TGI [10] | TGI [11] | TGI [13] | TGI [14] | TGI [15] | TGI [21] | TGI [22] | TGI [23] | TGI [24] | TGI [27] | TGI [28]
14 µM: TGI [25]
